Measured values from JPH0770139A, “2−(モノ又はジ置換−6，7−ジヒドロ−5H−ピラゾロ[1，2−a]ピラゾリウム−6−イル)チオ−カルバペネム誘導体” (Lederle Japan Ltd, priority 1993, dated 1994).

The compounds below were run on male CrjCD(SD) mice [CrjCD(SD)系雄性マウス] (assay: Toxicity test (subcutaneous administration to mice, 1 week observation)). Conditions: 500mg/kg, 10 male CrjCD(SD) mice, body weight 20-23 g, observation for 1 week.
Type: in vivo, mouse

SMILES	survival without abnormality
Cc1cc(C)[n+]2n1CC(SC1=C(C(=O)[O-])N3C(=O)[C@H]([C@@H](C)O)[C@H]3[C@H]1C)C2 (stereo partly drawn) [化合物(26), (1R,5S,6S)−2−[(6,7−ジヒドロ−1,3−ジメチル−5H−ピラゾロ[1,2−a]ピラゾリウム−6−イル)チオ]−6−[(R)−1−ヒドロキシエチル]−1−メチル−カルバペン−2−エム−3−カルボキシレート]	すべて異常なく生存した
C[C@@H](O)[C@H]1C(=O)N2C(C(=O)[O-])=C(SC3Cn4cc(C(=O)N(C)C)c[n+]4C3)[C@H](C)[C@H]12 (stereo partly drawn) [化合物(28), (1R,5S,6S)−2−{[6,7−ジヒドロ−2−(N,N−ジメチルカルバモイル)−5H−ピラゾロ[1.2−a]ピラゾリウム−6−イル]チオ}−6−[(R)−ヒドロキシエチル]−1−メチルカルバペン−2−エム−3−カルボキシレート]	すべて異常なく生存した
C[C@@H](O)[C@H]1C(=O)N2C(C(=O)[O-])=C(SC3Cn4cc(F)c[n+]4C3)[C@H](C)[C@H]12 (stereo partly drawn) [化合物(30), (1R,5S,6S)−2−[(6,7−ジヒドロ−2−フルオロ−5H−ピラゾロ[1.2−a]ピラゾリウム−6−イル)チオ]−6−[(R)−1−ヒドロキシエチル]−1−メチルカルバペン−2−エム−3−カルボキシレート]	すべて異常なく生存した
